Reference: patent publication US8895717B2, “Delivery of siRNA by neutral lipid compositions” (The Board of Regents of the University of Texas System, priority 2005, dated 2014)

Assays:
VEGF mRNA = VEGF mRNA expression, real-time RT-PCR; assay type: cell-based, human
Description: Total RNA was extracted (Trizol reagent; Invitrogen Co, Carlsbad, Calif.) and reverse transcribed using an oligo(dT) primer and M-MLV reverse transcriptase (Life Technologies, Inc., Rockville, Md.) in a final reaction volume of 20 μl (60 min at 42° C.). PCR amplifications are performed using the ABI Prism 7700 Sequence Detection System with TaqMan One-Step RT-PCR Master Mix Reagent kit (PE Applied Biosystems, Foster City, Calif.). Quantitative values are obtained from the Ct value, at which the increase in fluorescent signal associated with exponential growth of PCR products starts to be detected by the laser detector of the Sequence Detection System, using the analysis software according to the manufacturer's instructions (each sample is normalized on the basis of its I8S content). The VEGF primers were obtained from Applied Biosystems (Item number HS00173626-ml). βAR expression was examined with semi-quantitative RT-PCR using the following primers: βAR (forward, 5′-[…]-3′ (SEQ ID NO:13), reverse, 5′-[…]-3′) (SEQ ID NO:14); β2AR (forward, 5′-[…]-3′ (SEQ ID NO:15), reverse, 5′-[…]-3′) (SEQ ID NO:16).

A2780 and RMG-II cells = experiment: Intracellular cAMP in βAR negative cell lines; assay type: cell-based, human
HeyA8 cells [1] = experiment: Daily β-agonist treatment of mice bearing HeyA8 ovarian cancer cells; assay type: in vivo, nude mice; details: 10 mg/kg daily
Text: Mice habituated to vivarium conditions for 1 week before the initiation of stress procedures. A restraint-stress procedure was used based on previous studies (Sheridan et al., 1991), substituting a novel Mouse Restraint System (FIG. 15A) for conical centrifuge tubes. In this system, up to 10 mice are placed in individual slots, and each slot can be adjusted to restrain the animal for a desired length of time. In the present study, restraint stress began between 8 a.m. and 10 a.m., and lasted for 2-6 hours for up to 21 days. The ovarian cancer cell lines were harvested from subconfluent cultures by a brief exposure to 0.25% trypsin and 0.02% EDTA, resuspended in Hank's balanced salt solution (HBSS), and tested for >95% viability by trypan blue dye exclusion. The HeyA8 cells were injected i.p. into mice at a concentration of 2.5×10^5 cells while the other cell lines were injected at 1.0×10^6 cells per 0.2 ml HBSS, ten days after starting stress in all groups. Animals were necropsied 21 days after tumor injection, and tumors in the peritoneal cavity were excised, weighed, and documented for location. Immunohistochemistry and H&E staining procedures were carried out on formalin-fixed paraffin-embedded tumors.
Starting 4 days after tumor cell injection, mice bearing HeyA8 ovarian cancer cells (n=10 per group) were treated daily with either 1) PBS; 2) isoproterenol (non-specific β-agonist) 10 mg/kg; 3) terbutaline (β2-agonist) 5 mg/kg; 4) xamoterol (β1-agonist) 1 mg/kg; or 5) isoproterenol plus 2 mg/kg of the non-specific β-antagonist propranolol.

HeyA8 tumor samples = experiment: Mean vessel density (CD31) in HeyA8 tumor samples; assay type: in vivo, nude mice; details: daily agonist treatment
Description: Paraffin sections were stained for CD31 (1:800 dilution, Pharmingen, San Jose, Calif.), MMP-2 (1:500 dilution, Chemicon, Temecula, Calif.), MMP-9 (1:200 dilution, Calbiochem, San Diego, Calif.), VEGF (1:500 dilution, Santa Cruz Biotechnology, Santa Cruz, Calif.) and bFGF (1:1,000 dilution, Sigma, St. Louis, Mo.) at 4° C. Samples were stained with a biotinylated goat anti-rabbit antibody for 30 min (prediluted), followed by strepavidin horseradish peroxidase for 30 min (1:300 dilution), and visualized in 3,3′-diaminobenzidine (DAB) for 5-10 min.
To quantify MVD, 10 random 0.159 mm^2 fields at 100× magnification were examined for each tumor, and the microvessels within those fields were counted. A single microvessel was defined as a discrete cluster of cells stained CD31(+), and the presence of a lumen was required for scoring as a microvessel.

HeyA8 cells [2] = experiment: Cytotoxicity assay (MTT), HeyA8; assay type: cell-based, human; details: Homo sapiens, HEY A8; HeyA8, 96 hours
Description: (§1) The medium was exchanged after 48 hours with increasing concentrations of docetaxel (obtained from Aventis Pharma, Bridgewater, N.J.) dissolved in ethanol (final concentration range, 0.1-10,000 nmol/L prepared in medium) or cisplatin (purchased from LKT Laboratories, Inc., St. Paul, Minn.) dissolved in water. After a 96-hour incubation, 50 μL of 0.15% 3-(4,5-dimethylthiazol-2-yl)-2,5-diphenyltetrazolium bromide was added to each well and incubated for 2 hours. The supernatant was removed, and cells were dissolved in 100 μL DMSO. The absorbance at 570 nm was recorded using a FALCON microplate reader (Becton Dickinson Labware, Bedford, Mass.), and cell survival expressed as a percent increase or decrease above control conditions, after subtracting blank A570 readings. The IC50 concentration was determined by finding the A570 reading midpoint between maximal and minimal readings and finding the chemotherapy concentration that intersects the growth curve at that A570 reading.

caspase-3 = experiment: Caspase-3 activity in ovarian cancer cells (DEVD-AFC); assay type: cell-based, human; details: for increase in caspase-3 activity: 24 hours
Description: Ovarian cancer cells (1×10^6) in culture (six-well plates) were treated with or without docetaxel at the cell line specific IC50 or IC90 concentration for 24 hours. After washing with PBS, cells were lysed in 50 μL of cell lysis buffer provided. Caspase-3, caspase-8, and caspase-9 activities were measured with the appropriate apoptosis detection kit (BD Biosciences/Clontech, Palo Alto, Calif.), using substrate DEVD-AFC for caspase-3, IETD-AFC for caspase-8, and LEHD-AMC for caspase-9.

SKOV3 cells [3] = experiment: TUNEL apoptosis assay, SKOV3; assay type: cell-based, human
Description: (§2) Terminal deoxynucleotidyl transferase-mediated nick end labeling-positive cells were detected using Dead End Fluorometric terminal deoxynucleotidyl transferase-mediated nick end labeling system (APO-DIRECT, BD Biosciences/PharMingen, San Diego, Calif.) according to the manufacturer's instructions. […] Cells were fixed with 4% paraformaldehyde solution for 25 minutes on ice. Intracellular DNA fragments were then labeled by exposing cells to fluorescein-12-dUTP, treated with propidium iodide and RNaseA solution, and analyzed by flow cytometry (EPICS XL, Beckman Coulter, Miami, Fla.). The percentages of apoptotic cells were averaged over three consecutive experiments.

HeyA8 cells [4] = experiment: TUNEL apoptosis assay, HeyA8; assay type: cell-based, human
Description: as §2

SKOV3 cells [5] = experiment: Cytotoxicity assay (MTT), SKOV3; assay type: cell-based, human; details: Homo sapiens, SK-OV-3; SKOV3, 96 hours
Description: as §1

FAK = FAK cleavage in response to docetaxel, Western blot; assay type: cell-based, human
Description: Cells were lysed in modified RIPA buffer (50 mM Tris, 150 mM NaCl, 1% triton, 0.5% deoxycholate plus 25 µg/ml leupeptin, 10 µg/ml aprotinin, 2 mM EDTA, and 1 mM sodium orthovanadate (Sigma Chemical Co, St. Louis, Mo.) as previously described (Sood et al., 2004; Sood et al., 2002). A sample was removed from culture dishes by cell scraping and centrifuged at 12,500 rpm for 30 min. The […] protein concentration of the supernatant was determined using a bicinchoninic acid protein assay reagent kit (Pierce, Rockford, Ill.), and whole cell lysates were analyzed by 7.5% SDS-PAGE. Samples were then transferred to nitrocellulose membrane by semi-dry transfer (BioRad Laboratories, Hercules, Calif.). Membranes were blocked with 5% nonfat milk, and incubated with 0.25 μg/mL anti-FAK antibody (Biosource, International Camarillo, Calif.) for 1 h at room temperature. Antibody was detected with 0.167 μg/mL HRP-conjugated anti-mouse secondary antibody (The Jackson Laboratory, Bar Harbor, Me.) and developed with an enhanced chemiluminescence detection kit (Pierce). Equal loading was confirmed by detection of β-actin (0.1 μg/ml, anti-β-actin antibody, Sigma Chemical). Densitometric analysis was performed using the Scion Imaging software (Scion Corporation, Frederick, Md.).
It has been reported that FAK may be cleaved by caspase-3 (Gervais et al., 1998; Sasaki et al., 2002; Carragher et al., 2001). Based on observations regarding modulation of caspase levels by docetaxel in ovarian cancer cells, FAK cleavage after treatment with docetaxel was examined and whether there are differences in extent of FAK cleavage between the taxane-sensitive and taxane-resistant cell lines. In SKOV3 cells, FAK was cleaved after 48 and 72 hours of exposure to docetaxel (FIG. 7A). The 71-kDa fragments increased after treatment with docetaxel, whereas the 125-kDa fragments decreased. […] To study the dependence of FAK cleavage on caspase-3, the effect of DEVDfmk (caspase-3 inhibitor) was examined.

HeyA8-MDR cells = experiment: Cytotoxicity assay (MTT), HeyA8-MDR; assay type: cell-based, human
Description: as §1

SKOV3-TR cells = experiment: Cytotoxicity assay (MTT), SKOV3-TR; assay type: cell-based, human
Description: as §1

[6] = tested on: SKOV3-TR and HeyA8-MDR cells; experiment: TUNEL apoptosis assay, taxane-resistant cells; assay type: cell-based, human
Description: Terminal deoxynucleotidyl transferase-mediated nick end labeling-positive cells were detected using Dead End Fluorometric terminal deoxynucleotidyl transferase-mediated nick end labeling system (APO-DIRECT, BD Biosciences/PharMingen, San Diego, Calif.) according to the manufacturer's instructions. Briefly, ovarian cancer cells in culture were treated with varying concentrations of docetaxel and harvested after 12, 24, 48, or 96 hours. Cells were fixed with 4% paraformaldehyde solution for 25 minutes on ice. Intracellular DNA fragments were then labeled by exposing cells to fluorescein-12-dUTP, treated with propidium iodide and RNaseA solution, and analyzed by flow cytometry (EPICS XL, Beckman Coulter, Miami, Fla.). The percentages of apoptotic cells were averaged over three consecutive experiments.

For `CC(C)NCC(O)c1ccc(O)c(O)c1` (centres unmarked) [isoproterenol], which “effect on VEGF mRNA” value (VEGF mRNA; SKOV3ip1, forskolin 1 μM, db-cAMP 1 mM) is on record?
The value was “mimicked”.

And the “intracellular cAMP levels after stimulation” value (A2780 and RMG-II cells)?
Its value is “neither of the βAR negative cell lines showed an increase in intracellular cAMP levels”.

What about the “increase in average tumor weight compared to control” value (HeyA8 cells [1]) of the same compound?
The value was 266%.

What about the “increase in mean number of tumor nodules compared to control” value (HeyA8 cells [1]) of the same compound?
The value was 341%.

What about the MVD counts (HeyA8 tumor samples) of the same compound?
The MVD counts was “significantly higher MVD counts compared to controls”.

How did the IC50 (HeyA8 cells [2]) turn out when `CC(=O)O[C@@]12CO[C@@H]1C[C@H](O)[C@@]1(C)C(=O)[C@H](O)C3=C(C)[C@@H](OC(=O)[C@H](O)[C@@H](NC(=O)OC(C)(C)C)c4ccccc4)C[C@@](O)([C@@H](OC(=O)c4ccccc4)[C@H]21)C3(C)C` [docetaxel] was run?
Its IC50 is 1 nM.

And the “increase in caspase-3 activity” value (caspase-3; HeyA8, IC50 level of docetaxel)?
The value was 1.8 fold.

What about the “increase in caspase-3 activity” value (caspase-3; HeyA8, IC90 level of docetaxel) of the same compound?
The value was 2.5 fold.

What about the “increase in caspase-3 activity” value (caspase-3; SKOV3, IC50 level of docetaxel) of the same compound?
Its value is 2.8 fold.

And the “increase in caspase-3 activity” value (caspase-3; SKOV3, IC90 level of docetaxel)?
The value was 5.4 fold.

And the “induction of caspase activity” value (caspase-3; resistant SKOV3-TR and HeyA8-MDR, IC50 and IC90 levels for sensitive lines, caspase-3, -8, -9)?
Its value is “not able to induce caspase activity”.

And the apoptosis (SKOV3 cells [3]; SKOV3, IC20 level of docetaxel, FAK siRNA 48 hours before)?
Its apoptosis is “about 41%”.

And the “proportion of apoptotic cells” value (SKOV3 cells [3]; SKOV3, docetaxel 72 hours without or with DEVD-fmk)?
Its value is 72%.

And the “proportion of apoptotic cells” value (SKOV3 cells [3]; SKOV3, docetaxel 96 hours)?
The value was 84%.

What about the apoptosis (HeyA8 cells [4]; HeyA8, IC20 level of docetaxel, FAK siRNA 48 hours before) of the same compound?
The apoptosis was about 42%.

And the “proportion of apoptotic cells” value (HeyA8 cells [4]; HeyA8, docetaxel 72 hours without or with DEVD-fmk)?
The value was 56%.

What about the “proportion of apoptotic cells” value (HeyA8 cells [4]; HeyA8, docetaxel 96 hours) of the same compound?
The value was 66%.

What about the IC50 (SKOV3 cells [5]) of the same compound?
Its IC50 is 6.2 nM.

What about the FAK cleavage (FAK; SKOV3, 48 and 72 hours) of the same compound?
Its FAK cleavage is “cleaved”.

And the FAK cleavage (FAK; SKOV3-TR and HeyA8-MDR)?
The FAK cleavage was “did not show any increase in FAK cleavage products”.

And the “fold more resistant to docetaxel” value (HeyA8-MDR cells; HeyA8-MDR versus HeyA8)?
The value was 300 fold.

What about the IC50 (HeyA8-MDR cells; Homo sapiens, HeyA8-MDR, 96 hours) of the same compound?
The IC50 was 450 nM.

And the IC50 (SKOV3-TR cells; Homo sapiens, SKOV3TR, SKOV3-TR, 96 hours)?
Its IC50 is 225 nM.

What about the “fold more resistant to docetaxel” value (SKOV3-TR cells; SKOV3-TR versus SKOV3) of the same compound?
Its value is 36 fold.

And the apoptosis ([6]; FAK siRNA with or without docetaxel)?
The apoptosis was “neither agent alone induced much apoptosis”.

What about the level of apoptosis ([6]; docetaxel with or without DEVD-fmk) of the same compound?
The level of apoptosis was “remained low”.

Which results are given for `NC[C@H](O)c1ccc(O)c(O)c1` [norepinephrine]?
increase in VEGF mRNA expression (VEGF mRNA; SKOV3ip1, peak 1.5 hours following treatment): 8.4 fold; VEGF expression (VEGF mRNA; βAR-negative A2780 cells): no increase in VEGF expression; intracellular cAMP levels after stimulation (A2780 and RMG-II cells): neither of the βAR negative cell lines showed an increase in intracellular cAMP levels
